Consider one compound from US20250000822A1, “USE OF 2-HYDROXYBENZYLAMINE FOR THE TREATMENT OF SYSTEMIC LUPUS” (Vanderbilt University, priority 2019, published 2025).

Data set [1] in a line: reaction of 2-HOBA with isoLGs (isoLG scavenging). The source says:
(§1) 2-HOBA, for example, is naturally found in buckwheat seeds. 2-HOBA is highly reactive and found to react with isoLGs at a rate more than 3 orders of magnitude faster than the e-amine of lysine (see FIG. 3). By selectively reacting with isoLGs, 2-HOBA inhibits isoLG:protein adduct formation and subsequent isoLG-induced cell dysfunction.

For data set [2], the system named is HepG2 cells. The data set is described as follows: protection of HepG2 cells against H2O2-induced cytotoxicity. The format is cell-based.
Source text: as §1

Data set [3] deals with B6.SLE123 mice. The data set is described as follows: isoLG adduct accumulation in monocytes and dendritic cells of SLE-prone mice (flow cytometry). The conditions noted are these: B6.SLE123 mice treated from 7 weeks of age, analysed at 32 weeks. The format is in vivo. On the procedure: Quantitation of isoLG-adduct containing cells in (C) splenic DCs (D) circulating monocytes. (n=5-9, *P<0.05, **P<0.01, ***P<0.001, ****P<0.0001).
The present inventors have also shown that 2-HOBA reduces isoLG accumulation in monocytes and dendritic cells (DCs) of SLE-prone mice. B6.SLE123 mice were treated with 2-HOBA starting at 7 weeks of age (prior to disease presentation). At 32 weeks of age, peripheral blood, spleen, and bone marrow cells were harvested from B6.SLE123 and control (C57BL/6) mice. Flow cytometry was used to detect the surface markers CD11c, IAb, CD11b, F4/80, and Ly6c and isoLG adducts.
(In general: A flow cytometer gives signals particle by particle.)

Data set [4] deals with B6.SLE123 mice. The data set is described as follows: SLE-associated renal inflammation, B6.SLE123 mice. In kind it is in vivo. On the procedure:
Single cell suspensions were prepared from freshly isolated mouse kidney via enzymatic digestion and mechanical dissociation. Live cell singlets were analyzed. Representative FACS plots are presented for (A) CD3^+ T-cells. Quantitation of (B) CD45^+ leukocytes and (C) CD3^+ T-cells are represented. (n=6-8, *P<0.05, **P<0.01).
The present inventors have also shown that 2-HOBA reduces SLE-associated inflammation.

In data set [5] the test system is B6.SLE123 mice. The data set is described as follows: SLE-associated renal injury and dysfunction, B6.SLE123 mice. In kind it is in vivo. On the procedure: Kidneys were sectioned and stained with […] silver stain; (A) representative glomeruli are presented. (B) Mice received IP injection of 4% normal saline at 10% of body weight and urine output was measured over 4 hours. (C) Urine albumin/creatine ratio. (D) Urinary NGAL. (n=6-8, *P<0.05, **P<0.01, ****P<0.0001).
The present inventors have also shown that 2-HOBA protects against SLE-associated renal injury and dysfunction. […] To assess renal function, 2-HOBA treated and untreated B6.SLE123 animals were injected with 4% normal saline at a volume equal to 10% of their body weight, and urine volume was measured over 4 hours.

In data set [6] the test system is B6.SLE123 mice. The data set is described as follows: plasma cell expansion and antibody titers, B6.SLE123 mice. In kind it is in vivo. On the procedure:
(A) Representative FACS plots displaying CD138^+ and intracellular Igκ-light-chain^+ plasma cells from bone marrow. Quantitation of plasma cells as a percentage of CD45 cells are represented for (B) bone marrow. (C) Anti-dsDNA IgG antibody and (D) total plasma IgG at 1:100K dilution were analyzed by ELISA. (n=5-7, *P<0.05, **P<0.01, ***P<0.001, ****P<0.0001).
The present inventors have also shown that 2-HOBA reduces bone marrow plasma cell expansion and anti-dsDNA antibody titers. SLE is associated with an expansion of plasma cells and an amplification of auto-antibodies. Autoreactive plasma cells are believed to play an important role in SLE by generating antibodies that lead to the creation of immune complexes which deposit in peripheral tissues. Flow cytometry was performed to identify CD138^+/Igκ-light-chain^+ plasma cells in spleen and bone marrow cell preparations from B6.SLE123 animals treated with vehicle or 2-HOBA. B6.SLE123 animals had significant accumulation of spleen and bone marrow plasma cells which were attenuated by 2-HOBA (FIG. 7A-C).

Data set [7] relates to healthy human volunteers. The note with it: single doses up to 825 mg (highest dose tested); cited from earlier work.
The test system of data set [8] is healthy human volunteers. The note with it: 500 and 750 mg TID for 2 weeks; cited from earlier work.
The conditions of data set [9]: in vitro, in animals, or in humans, to date; cited from earlier work.
Setting [10] is: SLE-prone mice, kidney sections.
The mark [11] stands for this setting: B6.SLE123, CD138+/Igκ-light-chain+ cells, flow cytometry.

Entries after “also recorded” stand apart in the source; their conditions may differ.

As to `NCc1ccccc1O` [2-HOBA, 2-hydroxybenzylamine], the isoLG scavenging result in data set [1] is reported as “potent isoLG scavengers”. Besides, the “rate of reaction with isoLGs, faster than the e-amine of lysine” value in data set [1] (relative to e-amine of lysine) is on record as “more than 3 orders of magnitude”. Further, in data set [2], the “protection against H2O2-induced cytotoxicity” value is on record as “dramatically protected”. The “isoLG accumulation in monocytes” value in [3] (peripheral blood monocytes) was “efficient scavenging; also recorded: significantly attenuated”. Also, the “isoLG accumulation in DCs” value in [3] (splenic dendritic cells) is given as “efficient scavenging; also recorded: significantly attenuated”. Also, the renal inflammation entry in data set [4] was “markedly reduced”. In data set [4] (kidney, flow cytometry), the “renal CD3+ T-cells” value was “reduction” and the “renal CD45+ cells” value is given as “reduction”. For the same compound, in [5] (B6.SLE123 mice, urine), the “albumin to creatinine ratio” value is “improved”. The NGAL excretion entry in data set [5] (B6.SLE123 mice, urine, marker of tubular injury) is recorded as “improved”. The urine volume result in [5] (B6.SLE123 mice, over 4 hours after injection of 4% normal saline at 10% of body weight) is “improved”. Further, in data set [5] (setting [10]), the glomerular hypercellularity entry is “markedly improved” and the immune complex deposition entry was “markedly improved”. In data set [5] (mouse model of SLE (FIG. 6 legend)), the “renal injury and dysfunction” value is “attenuates”. Also, in data set [6] (B6.SLE123, ELISA), the “plasma anti-dsDNA antibody titers” value is listed as “reduces; also recorded: markedly lower”. In addition, the “total IgG antibody titers” value in [6] (B6.SLE123, plasma, ELISA) is given as “reduces; also recorded: markedly lower”. In [6] (setting [11]), the “accumulation of bone marrow plasma cells” value is “reduces; also recorded: attenuated” and the “accumulation of spleen plasma cells” value is reported as “attenuated”. In addition, the “safety and tolerability of single doses” value in data set [7] was “safe and well-tolerated”. In data set [8], the “accumulation of 2-HOBA and its primary metabolite” value is given as “low”; the serious adverse events result is “no serious adverse events”; the “tolerability of multiple doses” value is reported as “well tolerated”. Moreover, the “serious adverse effects or potential issues observed” value in data set [9] was “no serious adverse effects or potential issues”.
